Measured values as given in patent US20080009418A1, “Selective Inhibitors” (Alchemia LTD., priority 2004, published 2008).

Legend:
[1] = biological target: T1, Human δ-opioid (DOP) (Homo sapiens, UniProt P41143); test: Radioligand binding, human δ-opioid (DOP) membranes, FlashPlate, [3H]-Bremazocine; settings: compound at 10 μM, [3H]-Bremazocine
T1 construct: purchased Perkin Elmer Biosignal
How it was run: (§1)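 Cloned human receptor membranes were coated onto FlashPlate wells and incubated with radioligand and compound (added from a 0.5 mM DMSO daughter plate) for 1 hour at room temperature in the dark. Scintillation counting gave percent inhibition, with DMSO defining total and reference ligand defining non-specific binding.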

[2] = biological target: T2, Human κ-Opioid (KOP) (Homo sapiens, UniProt P41145); test: Radioligand binding, human κ-opioid (KOP) membranes, filtration, [3H]-Diprenorphine; settings: compound at 10 μM, [3H]-Diprenorphine
T2 construct: purchased Perkin Elmer Biosignal
How it was run: (§2)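 Percent inhibition of radioligand binding measured on recombinant human membranes: NK1 with [125I]-Substance P, KOP with [3H]-Diprenorphine. Incubation 1 h at room temperature, then harvest onto 0.3% PEI-soaked filters, cold Tris-HCl pH 7.4 washes and scintillation counting; non-specific binding from reference ligand wells.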

[3] = biological target: T3, Human Melanocortin (MC3) (Homo sapiens, UniProt P41968); test: Radioligand binding, human melanocortin MC3 membranes, FlashPlate, [125I]-NDP-αMSH; settings: compound at 10 μM, [125I]-NDP-αMSH
T3 construct: purchased Perkin Elmer Biosignal
How it was run: as §1

[4] = biological target: T4, Human Melanocortin (MC4) (Homo sapiens, UniProt P32245); test: Radioligand binding, human melanocortin MC4 membranes, FlashPlate, [125I]-NDP-αMSH; settings: compound at 10 μM, [125I]-NDP-αMSH
T4 construct: purchased Perkin Elmer Biosignal
How it was run: as §1

[5] = biological target: T5, Human melanocortin (MC5) (Homo sapiens, UniProt P33032); test: Radioligand binding, human melanocortin MC5 membranes, FlashPlate, [125I]-NDP-αMSH; settings: compound at 10 μM, [125I]-NDP-αMSH
T5 construct: purchased Perkin Elmer Biosignal
How it was run: as §1

[6] = biological target: T6, Human melanin-concentrating hormone (MCH1) (Homo sapiens, UniProt Q99705); test: Radioligand binding, human melanin-concentrating hormone MCH1 membranes, FlashPlate, [125I]-S36057; settings: compound at 10 μM
T6 construct: purchased Perkin Elmer Biosignal
How it was run: as §1

[7] = biological target: T7, Human μ-opioid (MOP) (Homo sapiens, UniProt P35372); test: Radioligand binding, human μ-opioid (MOP) membranes, FlashPlate, [3H]-Naloxone; settings: compound at 10 μM, [3H]-Naloxone
T7 construct: purchased Perkin Elmer Biosignal
How it was run: as §1

[8] = biological target: T8, Human neurokinin (NK1) (Homo sapiens, UniProt P25103); test: Radioligand binding, human neurokinin NK1 membranes, filtration, [125I]-Substance P; settings: compound at 10 μM, [125I]-Substance P
T8 construct: purchased Perkin Elmer Biosignal
How it was run: as §2

[9] = biological target: T9, Human neuropeptide Y (NPY-Y1) (Homo sapiens, UniProt P25929); test: Radioligand binding, human neuropeptide Y NPY-Y1 membranes, FlashPlate, [125I]-PYY; settings: compound at 10 μM, [125I]-PYY
T9 construct: purchased Perkin Elmer Biosignal
T9 sequence (P25929 1-384): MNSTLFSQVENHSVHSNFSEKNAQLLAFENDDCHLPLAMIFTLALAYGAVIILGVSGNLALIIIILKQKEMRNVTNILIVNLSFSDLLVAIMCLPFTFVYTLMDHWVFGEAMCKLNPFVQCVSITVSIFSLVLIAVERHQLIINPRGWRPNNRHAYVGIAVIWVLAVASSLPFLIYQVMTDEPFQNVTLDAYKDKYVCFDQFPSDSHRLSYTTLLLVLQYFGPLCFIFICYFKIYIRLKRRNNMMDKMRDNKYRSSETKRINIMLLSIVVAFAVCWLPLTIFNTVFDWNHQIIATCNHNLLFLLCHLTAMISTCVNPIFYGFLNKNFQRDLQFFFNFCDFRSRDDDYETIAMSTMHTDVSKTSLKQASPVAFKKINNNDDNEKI
How it was run: as §1

[10] = biological target: T10, Human opioid (ORL1) (Homo sapiens, UniProt P41146); test: Radioligand binding, human opioid ORL1 membranes, FlashPlate, [125I]-Nociceptin; settings: compound at 10 μM, [125I]-Nociceptin
T10 construct: purchased Perkin Elmer Biosignal
How it was run: as §1

[11] = biological target: T11, Mouse urotensin (mUR2) (Mus musculus, UniProt Q8VIH9); test: Radioligand binding, mouse urotensin mUR2 membranes, FlashPlate, [125I]-Urotensin II; settings: compound at 10 μM, [125I]-Urotensin II
T11 construct: purchased Perkin Elmer Biosignal
T11 sequence (Q8VIH9 1-385): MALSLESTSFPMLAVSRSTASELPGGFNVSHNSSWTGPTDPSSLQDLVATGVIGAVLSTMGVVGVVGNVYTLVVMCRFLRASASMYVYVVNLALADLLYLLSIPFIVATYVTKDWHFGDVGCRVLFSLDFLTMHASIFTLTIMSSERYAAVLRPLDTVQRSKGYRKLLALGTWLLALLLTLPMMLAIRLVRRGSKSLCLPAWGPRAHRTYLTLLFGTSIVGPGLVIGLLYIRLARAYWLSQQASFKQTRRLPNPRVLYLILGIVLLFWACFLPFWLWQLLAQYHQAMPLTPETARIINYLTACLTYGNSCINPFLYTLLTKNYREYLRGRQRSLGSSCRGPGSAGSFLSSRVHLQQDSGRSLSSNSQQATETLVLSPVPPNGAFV
How it was run: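 Cloned mouse urotensin (mUR2) receptor membranes from Perkin Elmer Biosignal were immobilized in FlashPlate microplates using a proprietary coating. Each well got 19.5 μl buffer, then 0.5 μl of DMSO, reference ligand, or compound. Adding 5 μl of [125I]-Urotensin II, diluted to 5× final concentration in binding buffer, started binding. Plates were sealed with TopSeal-A and incubated 1 hour at room temperature in the dark. Wells were counted for 30 seconds each on a TopCount after a 60-second delay, and percentage inhibition was calculated.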

[12] = [125I]-S36057, human MCH1 membranes

T6 sequence (Q99705 whole entry): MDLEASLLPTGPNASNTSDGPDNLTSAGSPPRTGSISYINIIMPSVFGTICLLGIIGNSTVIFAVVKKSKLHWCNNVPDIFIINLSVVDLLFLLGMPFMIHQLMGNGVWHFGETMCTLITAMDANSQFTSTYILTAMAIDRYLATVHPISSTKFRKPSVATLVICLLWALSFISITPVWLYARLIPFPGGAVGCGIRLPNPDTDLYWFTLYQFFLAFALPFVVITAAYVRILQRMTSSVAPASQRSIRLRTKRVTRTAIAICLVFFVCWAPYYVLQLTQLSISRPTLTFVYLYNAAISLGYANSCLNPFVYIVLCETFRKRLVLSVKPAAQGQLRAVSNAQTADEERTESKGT
T8 sequence (P25103 whole entry): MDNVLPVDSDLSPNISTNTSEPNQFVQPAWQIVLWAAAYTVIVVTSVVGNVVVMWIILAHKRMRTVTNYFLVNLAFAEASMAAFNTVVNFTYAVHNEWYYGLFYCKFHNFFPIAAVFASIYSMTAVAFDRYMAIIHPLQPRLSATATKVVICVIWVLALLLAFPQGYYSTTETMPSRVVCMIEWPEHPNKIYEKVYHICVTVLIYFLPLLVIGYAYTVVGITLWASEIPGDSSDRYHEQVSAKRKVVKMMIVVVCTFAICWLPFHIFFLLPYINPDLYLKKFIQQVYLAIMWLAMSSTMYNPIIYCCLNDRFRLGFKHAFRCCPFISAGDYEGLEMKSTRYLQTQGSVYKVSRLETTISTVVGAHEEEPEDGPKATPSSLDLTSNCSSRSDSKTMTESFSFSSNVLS
T3 sequence (P41968 whole entry): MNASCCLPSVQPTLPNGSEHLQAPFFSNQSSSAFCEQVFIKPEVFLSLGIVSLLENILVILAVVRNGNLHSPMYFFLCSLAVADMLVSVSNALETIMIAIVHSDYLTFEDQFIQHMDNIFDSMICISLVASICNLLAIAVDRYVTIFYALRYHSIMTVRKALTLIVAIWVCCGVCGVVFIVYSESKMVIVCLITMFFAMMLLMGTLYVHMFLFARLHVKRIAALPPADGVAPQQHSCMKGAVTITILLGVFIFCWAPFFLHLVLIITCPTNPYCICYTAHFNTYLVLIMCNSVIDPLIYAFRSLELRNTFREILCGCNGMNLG
T5 sequence (P33032 whole entry): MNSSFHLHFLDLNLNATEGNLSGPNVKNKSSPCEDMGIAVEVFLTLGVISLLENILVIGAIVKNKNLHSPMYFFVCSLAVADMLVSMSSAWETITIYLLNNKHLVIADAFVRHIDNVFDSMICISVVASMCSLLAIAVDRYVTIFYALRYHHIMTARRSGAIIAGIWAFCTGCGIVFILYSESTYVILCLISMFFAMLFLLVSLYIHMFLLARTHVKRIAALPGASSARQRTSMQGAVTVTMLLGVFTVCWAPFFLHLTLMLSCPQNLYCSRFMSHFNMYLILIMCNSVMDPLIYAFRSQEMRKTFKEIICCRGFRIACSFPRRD
T10 sequence (P41146 whole entry): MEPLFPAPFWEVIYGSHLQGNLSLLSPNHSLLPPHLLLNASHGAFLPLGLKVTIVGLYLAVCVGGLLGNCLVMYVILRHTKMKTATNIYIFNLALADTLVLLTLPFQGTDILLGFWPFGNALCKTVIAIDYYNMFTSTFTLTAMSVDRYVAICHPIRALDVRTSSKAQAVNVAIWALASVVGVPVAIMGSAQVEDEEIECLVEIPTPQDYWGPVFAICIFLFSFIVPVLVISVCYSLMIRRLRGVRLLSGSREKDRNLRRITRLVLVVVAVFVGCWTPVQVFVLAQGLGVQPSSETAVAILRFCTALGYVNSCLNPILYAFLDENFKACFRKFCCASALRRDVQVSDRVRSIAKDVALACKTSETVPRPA
T1 sequence (P41143 whole entry): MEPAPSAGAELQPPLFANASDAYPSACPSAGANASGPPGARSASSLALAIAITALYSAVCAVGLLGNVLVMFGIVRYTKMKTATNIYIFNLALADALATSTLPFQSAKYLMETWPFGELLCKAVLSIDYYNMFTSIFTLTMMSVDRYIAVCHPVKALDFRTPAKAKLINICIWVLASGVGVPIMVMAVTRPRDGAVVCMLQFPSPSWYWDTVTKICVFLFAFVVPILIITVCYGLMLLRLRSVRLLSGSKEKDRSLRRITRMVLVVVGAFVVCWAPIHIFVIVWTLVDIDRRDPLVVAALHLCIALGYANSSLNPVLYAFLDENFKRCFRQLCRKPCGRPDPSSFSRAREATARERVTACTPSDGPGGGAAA
T4 sequence (P32245 whole entry): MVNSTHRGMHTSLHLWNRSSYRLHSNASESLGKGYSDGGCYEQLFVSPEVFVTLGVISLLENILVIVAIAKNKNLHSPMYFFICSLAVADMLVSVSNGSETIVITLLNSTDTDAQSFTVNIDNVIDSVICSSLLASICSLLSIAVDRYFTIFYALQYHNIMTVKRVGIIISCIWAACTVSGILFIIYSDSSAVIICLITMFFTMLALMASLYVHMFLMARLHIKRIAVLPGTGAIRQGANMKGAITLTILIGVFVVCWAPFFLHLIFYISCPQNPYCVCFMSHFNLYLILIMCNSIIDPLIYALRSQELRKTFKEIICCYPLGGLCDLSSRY
T2 sequence (P41145 whole entry): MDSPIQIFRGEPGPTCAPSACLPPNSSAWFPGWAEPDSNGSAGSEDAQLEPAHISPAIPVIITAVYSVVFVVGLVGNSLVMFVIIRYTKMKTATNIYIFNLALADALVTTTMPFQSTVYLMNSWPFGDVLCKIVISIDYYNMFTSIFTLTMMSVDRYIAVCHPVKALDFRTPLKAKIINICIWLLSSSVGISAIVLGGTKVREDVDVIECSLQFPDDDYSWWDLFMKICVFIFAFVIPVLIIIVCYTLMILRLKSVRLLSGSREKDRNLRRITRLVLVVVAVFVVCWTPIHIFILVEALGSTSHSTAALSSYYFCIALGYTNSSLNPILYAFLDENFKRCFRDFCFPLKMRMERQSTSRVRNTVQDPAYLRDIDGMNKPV
T7 sequence (P35372 whole entry): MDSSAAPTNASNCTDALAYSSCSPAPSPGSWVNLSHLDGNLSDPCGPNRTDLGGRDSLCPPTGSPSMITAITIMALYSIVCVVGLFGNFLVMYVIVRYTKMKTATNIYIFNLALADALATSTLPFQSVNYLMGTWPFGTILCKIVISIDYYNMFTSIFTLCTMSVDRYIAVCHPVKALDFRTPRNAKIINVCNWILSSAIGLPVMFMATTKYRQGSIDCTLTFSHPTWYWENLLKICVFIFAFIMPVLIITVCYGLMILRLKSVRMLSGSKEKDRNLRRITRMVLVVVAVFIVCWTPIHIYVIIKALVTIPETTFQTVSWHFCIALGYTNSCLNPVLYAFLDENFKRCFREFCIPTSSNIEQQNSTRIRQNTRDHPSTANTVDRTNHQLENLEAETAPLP

In the case of `COC[C@H]1OC(OCc2ccc3ccccc3c2)[C@H](NC(=O)CNC(=N)N)[C@@H](OCc2cccc(O)c2)[C@@H]1O` (stereo partly shown) [compound 133], the “A1 radioligand binding, percentage inhibition” value [1] is reported as “− (“−” indicates less than 50% inhibition at 10 μM)”, the “A2 radioligand binding, percentage inhibition” value [2] is reported as “− (“−” indicates less than 50% inhibition at 10 μM)” and the “A3 radioligand binding, percentage inhibition” value [3] is reported as “− (“−” indicates less than 50% inhibition at 10 μM)”. For the same compound, the “A4 radioligand binding, percentage inhibition” value [4] was “− (“−” indicates less than 50% inhibition at 10 μM)”, the “A5 radioligand binding, percentage inhibition” value [5] was “− (“−” indicates less than 50% inhibition at 10 μM)” and the “A6 radioligand binding, percentage inhibition” value ([6]; [125I]-S36057) was “− (“−” indicates less than 50% inhibition at 10 μM)”. The “A7 radioligand binding, percentage inhibition” value [7] was “+ (“+” indicates greater than 50% inhibition at 10 μM)”, the “A8 radioligand binding, percentage inhibition” value [8] was “− (“−” indicates less than 50% inhibition at 10 μM)” and the “A9 radioligand binding, percentage inhibition” value [9] was “− (“−” indicates less than 50% inhibition at 10 μM)”. The “A10 radioligand binding, percentage inhibition” value [10] was “− (“−” indicates less than 50% inhibition at 10 μM)” and the “A11 radioligand binding, percentage inhibition” value [11] was “− (“−” indicates less than 50% inhibition at 10 μM)”.

In the case of `COCC1OC(OCc2ccccc2)C(NC(=O)CCNC(=N)N)C(OCc2ccc3ccccc3c2)C1O` (stereo not shown) [compound 191], the “A1: inhibition of radioligand binding” value ([1]; FlashPlate) is reported as “− (“−” indicates less than 50% inhibition at 10 μM)”, the “A2: inhibition of radioligand binding” value ([2]; filtration) is reported as “− (“−” indicates less than 50% inhibition at 10 μM)” and the “A3: inhibition of radioligand binding” value ([3]; FlashPlate) is reported as “− (“−” indicates less than 50% inhibition at 10 μM)”. The “A4: inhibition of radioligand binding” value ([4]; FlashPlate) was “+ (“+” indicates greater than 50% inhibition at 10 μM)”, the “A5: inhibition of radioligand binding” value ([5]; FlashPlate) was “+ (“+” indicates greater than 50% inhibition at 10 μM)” and the “A6: inhibition of radioligand binding” value ([6]; [125I]-S36057, FlashPlate) was “+ (“+” indicates greater than 50% inhibition at 10 μM)”. The “A7: inhibition of radioligand binding” value ([7]; FlashPlate) was “− (“−” indicates less than 50% inhibition at 10 μM)”, the “A8: inhibition of radioligand binding” value ([8]; filtration) was “+ (“+” indicates greater than 50% inhibition at 10 μM)” and the “A9: inhibition of radioligand binding” value ([9]; FlashPlate) was “− (“−” indicates less than 50% inhibition at 10 μM)”. For the same compound, the “A10: inhibition of radioligand binding” value ([10]; FlashPlate) was “− (“−” indicates less than 50% inhibition at 10 μM)” and the “A11: inhibition of radioligand binding” value ([11]; FlashPlate) was “− (“−” indicates less than 50% inhibition at 10 μM)”.

With `NCCCC(=O)NC1C(OCc2ccccc2)OC(COCc2ccc(Cl)cc2)C(O)C1OCc1ccccc1` (stereo not shown) [compound 380] the “A1: inhibition of radioligand binding” value ([1]; human DOP membranes) was “− (“−” indicates less than 50% inhibition at 10 μM)”, the “A2: inhibition of radioligand binding” value ([2]; human KOP membranes) was “− (“−” indicates less than 50% inhibition at 10 μM)” and the “A3: inhibition of radioligand binding” value ([3]; human MC3 membranes) was “− (“−” indicates less than 50% inhibition at 10 μM)”. For the same compound, the “A4: inhibition of radioligand binding” value ([4]; human MC4 membranes) was “+ (“+” indicates greater than 50% inhibition at 10 μM)”, the “A5: inhibition of radioligand binding” value ([5]; human MC5 membranes) was “− (“−” indicates less than 50% inhibition at 10 μM)” and the “A6: inhibition of radioligand binding” value [6, 12] was “− (“−” indicates less than 50% inhibition at 10 μM)”. The “A7: inhibition of radioligand binding” value ([7]; human MOP membranes) was “− (“−” indicates less than 50% inhibition at 10 μM)”, the “A8: inhibition of radioligand binding” value ([8]; human NK1 membranes) was “+ (“+” indicates greater than 50% inhibition at 10 μM)” and the “A9: inhibition of radioligand binding” value ([9]; human NPY-Y1 membranes) was “− (“−” indicates less than 50% inhibition at 10 μM)”. The “A10: inhibition of radioligand binding” value ([10]; human ORL1 membranes) was “− (“−” indicates less than 50% inhibition at 10 μM)” and the “A11: inhibition of radioligand binding” value ([11]; mouse mUR2 membranes) was “− (“−” indicates less than 50% inhibition at 10 μM)”.

In the case of `CSC1OC(COCc2ccc(Cl)cc2)C(O)C(OCc2ccc3ccccc3c2)C1NC(=O)CCN` (stereo not shown) [compound 308], the “A1: inhibition of radioligand binding, human δ-opioid (DOP)” value [1] is reported as “− (“−” indicates less than 50% inhibition at 10 μM)”, the “A2: inhibition of radioligand binding, human κ-opioid (KOP)” value [2] is reported as “− (“−” indicates less than 50% inhibition at 10 μM)” and the “A3: inhibition of radioligand binding, human melanocortin (MC3)” value [3] is reported as “− (“−” indicates less than 50% inhibition at 10 μM)”. For the same compound, the “A4: inhibition of radioligand binding, human melanocortin (MC4)” value [4] was “− (“−” indicates less than 50% inhibition at 10 μM)”, the “A5: inhibition of radioligand binding, human melanocortin (MC5)” value [5] was “− (“−” indicates less than 50% inhibition at 10 μM)” and the “A6: inhibition of radioligand binding, human melanin-concentrating hormone (MCH1)” value ([6]; [125I]-S36057) was “− (“−” indicates less than 50% inhibition at 10 μM)”. For the same compound, the “A7: inhibition of radioligand binding, human μ-opioid (MOP)” value [7] was “− (“−” indicates less than 50% inhibition at 10 μM)”, the “A8: inhibition of radioligand binding, human neurokinin (NK1)” value [8] was “+ (“+” indicates greater than 50% inhibition at 10 μM)” and the “A9: inhibition of radioligand binding, human neuropeptide Y (NPY-Y1)” value [9] was “− (“−” indicates less than 50% inhibition at 10 μM)”. For the same compound, the “A10: inhibition of radioligand binding, human opioid (ORL1)” value [10] was “− (“−” indicates less than 50% inhibition at 10 μM)” and the “A11: inhibition of radioligand binding, mouse urotensin (mUR2)” value [11] was “− (“−” indicates less than 50% inhibition at 10 μM)”.

For `N=C(N)NCCC(=O)NC1C(OCc2ccc(-c3ccccc3)cc2)OC(COCc2ccc3ccccc3c2)C(O)C1OCc1ccc(Cl)cc1` (stereo not shown) [compound 408], the “A1: inhibition of radioligand binding” value ([1]; human DOP membranes) was “− (“−” indicates less than 50% inhibition at 10 μM)”, the “A2: inhibition of radioligand binding” value ([2]; human KOP membranes) was “− (“−” indicates less than 50% inhibition at 10 μM)” and the “A3: inhibition of radioligand binding” value ([3]; human MC3 membranes) was “+ (“+” indicates greater than 50% inhibition at 10 μM)”. For the same compound, the “A4: inhibition of radioligand binding” value ([4]; human MC4 membranes) was “+ (“+” indicates greater than 50% inhibition at 10 μM)”, the “A5: inhibition of radioligand binding” value ([5]; human MC5 membranes) was “+ (“+” indicates greater than 50% inhibition at 10 μM)” and the “A6: inhibition of radioligand binding” value [6, 12] was “+ (“+” indicates greater than 50% inhibition at 10 μM)”. For the same compound, the “A7: inhibition of radioligand binding” value ([7]; human MOP membranes) was “− (“−” indicates less than 50% inhibition at 10 μM)”, the “A8: inhibition of radioligand binding” value ([8]; human NK1 membranes) was “+ (“+” indicates greater than 50% inhibition at 10 μM)” and the “A9: inhibition of radioligand binding” value ([9]; human NPY-Y1 membranes) was “− (“−” indicates less than 50% inhibition at 10 μM)”. The “A10: inhibition of radioligand binding” value ([10]; human ORL1 membranes) was “+ (“+” indicates greater than 50% inhibition at 10 μM)” and the “A11: inhibition of radioligand binding” value ([11]; mouse mUR2 membranes) was “− (“−” indicates less than 50% inhibition at 10 μM)”.
